Data taken from ChEMBL document CHEMBL1201862, “PubChem BioAssay data set” (2004).
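Grown in 96-well plates, cells were treated for 48 hours with each compound at five concentrations. Insufficient inhibition: endpoint recorded as highest concentration tested. GI50: concentration for 50% inhibition of growth.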 The source made the active and inactive calls. No stated cut-off is given here; in the data, active = GI50 up to about 1.1 µM and inactive = higher.

What was measured:
Test in all cases: DTP human tumour cell line panel, 48 h
[1] = test system: HT-29
[2] = test system: OVCAR-3
[3] = test system: SN12C
[4] = test system: SK-MEL-2
[5] = test system: IGROV-1
[6] = test system: OVCAR-4
[7] = test system: DU-145
[8] = test system: NCI/ADR-RES
[9] = test system: OVCAR-8
[10] = test system: HCC 2998
[11] = test system: SK-MEL-28
[12] = test system: MDA-MB-231
[13] = test system: SNB-19
[14] = test system: T47D
[15] = test system: HOP-62
[16] = test system: OVCAR-5
[17] = test system: UO-31
[18] = test system: SW-620
[19] = test system: SF-268
[20] = test system: NCI-H226

Measured: GI50

O=C(/C=C/c1ccc(Cl)c(Cl)c1)Oc1ccc(/C=C2\CCCCC2=O)cc1
inactive: [1] > 100 µM | [2] > 100 µM | [3] > 100 µM | [4] > 100 µM | [5] > 100 µM | [6] > 100 µM | [7] > 100 µM | [8] > 100 µM | [9] > 100 µM | [10] > 100 µM | [11] > 100 µM | [12] > 100 µM | [13] > 100 µM | [14] > 100 µM | [15] > 100 µM | [16] > 100 µM | [17] > 100 µM | [18] > 100 µM | [19] 39 µM

COC(=O)c1c(C)[n+]([O-])c2cc(Cl)c(Cl)cc2[n+]1[O-]
inactive: [1] 18.7 µM | [2] 16.6 µM | [3] 18.2 µM | [4] 19.4 µM | [5] 4.39 µM | [6] 19 µM | [7] 12.5 µM | [8] 13.9 µM | [9] 16.6 µM | [10] 16.1 µM | [11] 27.4 µM | [12] 19.4 µM | [13] 27.4 µM | [14] 15.8 µM | [15] 26 µM | [16] 30.9 µM | [17] 15.8 µM | [18] 18.3 µM | [19] 23.4 µM

COC(=O)/C=C1/OC(c2ccc(C)cc2C)=CC1=O
inactive: [1] 5.18 µM | [2] 26.9 µM | [5] 4.47 µM | [6] > 10 µM | [7] 15.5 µM | [8] 19.5 µM | [9] 10 µM | [10] 16.7 µM | [11] 19.5 µM | [12] 14.3 µM | [13] > 10 µM | [14] 20.1 µM | [15] 25.2 µM | [20] 19.5 µM | [16] 15.7 µM | [17] 16.8 µM | [18] 2.82 µM | [19] 17.8 µM

Cn1c(-c2ccc(C=O)o2)ccc1-c1ccc(C=O)o1
inactive: [1] 36.1 µM | [2] 26.2 µM | [3] 37.6 µM | [4] > 100 µM | [5] 36.9 µM | [6] 53.1 µM | [7] 49.4 µM | [8] 35.7 µM | [9] 30.4 µM | [10] > 100 µM | [11] 40.1 µM | [12] 38 µM | [13] 54.8 µM | [14] 26.1 µM | [15] 45.3 µM | [20] 76.4 µM | [16] > 100 µM | [17] 35.3 µM | [18] 35.4 µM

CCOP(=O)(OCC)C(NC(=O)C(C(F)(F)F)C(F)(F)F)c1ccccc1 (centres undefined)
inactive: [1] > 100 µM | [2] > 100 µM | [3] > 100 µM | [4] > 100 µM | [5] > 100 µM | [6] > 100 µM | [7] > 100 µM | [8] > 100 µM | [9] > 100 µM | [10] > 100 µM | [11] > 100 µM | [12] > 100 µM | [13] > 100 µM | [14] 84.1 µM | [15] > 100 µM | [16] > 100 µM | [17] 49.9 µM | [18] > 100 µM | [19] > 100 µM

O=C(NO)c1ccc(C(=O)NO)cc1
inactive: [1] 87.9 µM | [2] 32.4 µM | [3] > 100 µM | [5] > 100 µM | [6] > 100 µM | [7] 34.5 µM | [8] 3.21 µM | [9] 30.8 µM | [10] 9.86 µM | [11] > 100 µM | [12] 43.6 µM | [13] > 100 µM | [14] 30.3 µM | [15] 62.2 µM | [20] > 100 µM | [16] > 100 µM | [17] 39.3 µM | [18] 80.9 µM | [19] 58.3 µM

CC(=O)N1N=C(c2ccccc2Nc2ccccc2C2=NN(C(C)=O)C(c3ccccc3)O2)OC1c1ccccc1 (centres undefined)
inactive: [1] 25.5 µM | [2] > 100 µM | [3] > 100 µM | [4] 73.3 µM | [5] > 100 µM | [6] 29.8 µM | [7] > 100 µM | [8] 55.6 µM | [9] 71.6 µM | [10] > 100 µM | [11] > 100 µM | [12] > 100 µM | [13] > 100 µM | [14] > 100 µM | [15] > 100 µM | [20] > 100 µM | [16] > 100 µM | [17] 48.5 µM | [18] 99.8 µM

COC1(OC)N=C(N)C2(C#N)C(C)=C3NCN(C)N=C3C12C#N (centres undefined)
inactive: [1] > 100 µM | [2] > 100 µM | [3] > 100 µM | [4] > 100 µM | [5] > 100 µM | [7] > 100 µM | [8] > 100 µM | [9] > 100 µM | [10] > 100 µM | [11] > 100 µM | [12] > 100 µM | [13] > 100 µM | [14] > 100 µM | [15] > 100 µM | [20] > 100 µM | [16] > 100 µM | [17] > 100 µM | [18] > 100 µM | [19] > 100 µM

NC1=NNC2(C(N)=N1)c1ccccc1-c1ccccc12
inactive: [1] > 10 µM | [3] > 10 µM | [5] > 10 µM | [6] > 10 µM | [7] > 10 µM | [8] > 10 µM | [9] > 10 µM | [10] > 10 µM | [11] > 10 µM | [12] > 10 µM | [13] > 10 µM | [14] > 10 µM | [15] > 10 µM | [20] > 10 µM | [17] 5.13 µM | [18] > 10 µM | [19] > 10 µM

CC(=O)CC(O)(C(F)(F)Cl)C(F)(Cl)Cl (centres undefined)
inactive: [1] > 10 µM | [2] > 10 µM | [3] > 10 µM | [4] > 10 µM | [5] > 10 µM | [6] > 10 µM | [7] > 10 µM | [8] > 10 µM | [9] > 10 µM | [10] > 10 µM | [11] > 10 µM | [12] > 10 µM | [13] > 10 µM | [14] > 10 µM | [15] > 10 µM | [20] > 10 µM | [17] > 10 µM | [18] > 10 µM | [19] > 10 µM

CC(=O)Nc1nc(C)c(S(=O)(=O)NC(=O)N2c3ccccc3CCc3ccccc32)s1
inactive: [1] > 100 µM | [2] > 100 µM | [3] > 100 µM | [4] > 100 µM | [5] > 100 µM | [6] > 100 µM | [7] > 100 µM | [8] > 100 µM | [9] > 100 µM | [10] > 100 µM | [11] > 100 µM | [12] > 100 µM | [13] 29.4 µM | [14] > 100 µM | [15] > 100 µM | [16] > 100 µM | [17] > 100 µM | [18] > 100 µM | [19] > 100 µM

COc1ccc(N2C(=O)C3c4[nH]c5cc(Cl)ccc5c4C4CCC(C(C)(C)C)CC4C3C2=O)cc1 (centres undefined)
inactive: [1] 31.7 µM | [2] 67.6 µM | [3] 64.9 µM | [5] > 100 µM | [6] 94.4 µM | [7] > 100 µM | [8] > 100 µM | [9] > 100 µM | [10] 44 µM | [11] > 100 µM | [12] > 100 µM | [13] > 100 µM | [14] 66.4 µM | [15] > 100 µM | [20] > 100 µM | [17] 70.5 µM | [18] 69.8 µM | [19] > 100 µM

C/C(Sc1ccccc1)=C1/CCCN(Cc2ccccc2)C1
inactive: [1] 35.6 µM | [2] 16.6 µM | [4] 17.2 µM | [5] 36.3 µM | [6] 35.2 µM | [7] 47.5 µM | [8] 24.9 µM | [9] 30 µM | [10] 17.2 µM | [11] 23.8 µM | [12] 24.1 µM | [13] 36.9 µM | [14] 13.3 µM | [15] 20.6 µM | [20] 12.9 µM | [16] 23.7 µM | [17] 15.3 µM | [18] 28.9 µM | [19] 36.1 µM

C#CCN(Cc1ccc2[nH]c(N)nc(=O)c2c1)c1ccc(C(=O)NC(CCC(=O)O)C(=O)O)cc1 (centres undefined)
inactive: [1] > 100 µM | [2] 9.71 µM | [3] 6.71 µM | [5] 62.1 µM | [7] 5.94 µM | [8] 36.6 µM | [9] 4.4 µM | [10] > 100 µM | [11] > 100 µM | [12] > 100 µM | [13] 40.4 µM | [14] 9.35 µM | [15] 23.4 µM | [20] > 100 µM | [16] > 100 µM | [17] 5.66 µM | [18] > 100 µM | [19] 17.5 µM

Clc1ccccc1C(c1ccccc1)(c1ccccc1)n1ccnc1 [CLOTRIMAZOLE]
inactive: [1] 9.25 µM | [2] 5.66 µM | [4] 12.1 µM | [5] 7.57 µM | [6] 9.82 µM | [7] 17.3 µM | [8] 9.25 µM | [9] 11 µM | [10] 16.5 µM | [11] 16.2 µM | [12] 14.9 µM | [13] 14.4 µM | [14] 7.85 µM | [15] 11.4 µM | [16] 11.8 µM | [17] 6.56 µM | [18] 12 µM | [19] 16.5 µM
